Source: patent publication US20230265098A1, “ALKYNE QUINAZOLINE DERIVATIVES AS INHIBITORS OF ERBB2” (EnLiven Therapeutics, Inc., priority 2020, published 2023)

Key:
A431 cells = experiment: Cell viability assay (CellTiter Glo); type: cell-based; conditions: Homo sapiens, A-431; 72 hours; 1500 cells per well, 384-well; DMEM + 10% FBS
Method: (§1) Cells were treated with compounds, and cell viability was measured as a metric of kinase inhibition.
(§2) The Ba/F3 cell line is IL-3-dependent mouse cell line derived from the C3H mouse strain. Ba/F3 cell lines were engineered to express human ERBB2 or EGFR kinases, rendering the cells IL-3 independent. The lines were generated via retroviral transduction utilizing a Moloney murine leukemia virus (MMLV) promoter, and constructs are stably integrated into the cell genome.
(§3) Similarly, Ba/F3 cell lines engineered to express EGFR, ERBB2, or ERBB2 mutants were grown, harvested, counted and seeded at 3000 cells per well in 96-well plates for the data sets shown in Tables B3-B4, and seeded at 300 cells per well in 384-well plates for the data set shown in Table B5. A subset of wells contained media only (low control, “LC”).
(§4) Table B2 provides the growth media and number of cells seeded per well for the each cell line.
(§5) Compounds were dissolved in DMSO and serially diluted. Serially-diluted compound or a DMSO only control (high control, “HC”) was added to the plated cells in each well. […] The final proportion of DMSO never exceeded 0.1%.
(§6) Plates were placed in a 37° C., 5% CO2 incubator for 72 hours. Plates were then removed from the incubator and equilibrated for 15 minutes at room temperature. 40 IA of CellTiter Glo reagent (Promega) was added to measure the relative level of metabolically active cells by quantifying intracellular ATP concentrations. Plates were incubated for 30 minutes at room temperature, and luminescence was measured. Percent viability was normalized to a vehicle control only using the following formula: % viability=100×(LumSample−LumLC) (LumHC−LumLC). Graphical curves were fitted using a nonlinear regression model with a sigmoidal dose response.

BT-474 cells = experiment: Cell viability assay (CellTiter Glo); type: cell-based; conditions: Homo sapiens, 72 hours, 2000 cells per well, 384-well, DMEM + 10% FBS
Method: as §1, §2, §3, §4, §5, §6

MDA-MB-175VII cells = experiment: Cell viability assay (CellTiter Glo); type: cell-based; conditions: Homo sapiens, 72 hours, 2000 cells per well, 384-well, RPMI + 10% FBS
Method: as §1, §2, §3, §4, §5, §6

[1] = target: T1, Ba/F3 ERBB2 A775_G776insYVMA (Homo sapiens, UniProt P04626, DUP772-775, cells depend on it); experiment: Cell viability assay (CellTiter Glo); type: cell-based, mouse; conditions: 72 hours; 3000 cells per well, 96-well plates (Tables B3-B4); read-out: Cell viability IC50, nM, Ba/F3 ERBB2 A775_G776insYVMA
T1 construct: Ba/F3 cell lines were engineered to express human ERBB2 or EGFR kinases, rendering the cells IL-3 independent
Outline: (§7)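 Murine Ba/F3 cells made IL-3-independent by retroviral human EGFR or ERBB2 were seeded at 3000 or 300 cells per well and exposed to serially diluted compound (DMSO ≤0.1%) for 72 hours at 37° C, 5% CO2. CellTiter Glo luminescence was normalised to DMSO and media-only controls and fitted to a sigmoidal dose-response.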

Ba/F3 ERBB2 wt = target: T2, Ba/F3 ERBB2 wt (Homo sapiens, UniProt P04626); experiment: Cell viability assay (CellTiter Glo); type: cell-based, mouse; conditions: 72 hours; 3000 cells per well, 96-well plates; read-out: Cell viability IC50, nM, Ba/F3 ERBB2 wt
T2 construct: Ba/F3 cell lines were engineered to express human ERBB2 or EGFR kinases, rendering the cells IL-3 independent
Outline: as §7

Ba/F3 ERBB2-G776VC = target: T3, Ba/F3 ERBB2-G776VC (Homo sapiens, UniProt P04626, DELINS776-776VC, cells depend on it); experiment: Cell viability assay (CellTiter Glo); type: cell-based, mouse; conditions: 72 hours; 3000 cells per well, 96-well plates; read-out: Cell viability IC50, nM, Ba/F3 ERBB2-G776VC
T3 construct: Ba/F3 cell lines were engineered to express human ERBB2 or EGFR kinases, rendering the cells IL-3 independent
Outline: as §7

Ba/F3 ERBB2-L755S = target: T4, Ba/F3 ERBB2-L755S (Homo sapiens, UniProt P04626, L755S, cells depend on it); experiment: Cell viability assay (CellTiter Glo); type: cell-based, mouse; conditions: 72 hours; 3000 cells per well, 96-well plates; read-out: Cell viability IC50, nM, Ba/F3 ERBB2-L755S
T4 construct: Ba/F3 cell lines were engineered to express human ERBB2 or EGFR kinases, rendering the cells IL-3 independent
Outline: as §7

Ba/F3 ERBB2-L869R = target: T5, Ba/F3 ERBB2-L869R (Homo sapiens, UniProt P04626, L869R, cells depend on it); experiment: Cell viability assay (CellTiter Glo); type: cell-based, mouse; conditions: 72 hours; 3000 cells per well, 96-well plates; read-out: Cell viability IC50, nM, Ba/F3 ERBB2-L869R
T5 construct: Ba/F3 cell lines were engineered to express human ERBB2 or EGFR kinases, rendering the cells IL-3 independent
Outline: as §7

Ba/F3 ERBB2-T798M = target: T6, Ba/F3 ERBB2-T798M (Homo sapiens, UniProt P04626, T798M, cells depend on it); experiment: Cell viability assay (CellTiter Glo); type: cell-based, mouse; conditions: 72 hours; 3000 cells per well, 96-well plates; read-out: Cell viability IC50, nM, Ba/F3 ERBB2-T798M
T6 construct: Ba/F3 cell lines were engineered to express human ERBB2 or EGFR kinases, rendering the cells IL-3 independent
Outline: as §7

Ba/F3 ERBB2-V777L = target: T7, Ba/F3 ERBB2-V777L (Homo sapiens, UniProt P04626, V777L, cells depend on it); experiment: Cell viability assay (CellTiter Glo); type: cell-based, mouse; conditions: 72 hours; 3000 cells per well, 96-well plates; read-out: Cell viability IC50, nM, Ba/F3 ERBB2-V777L
T7 construct: Ba/F3 cell lines were engineered to express human ERBB2 or EGFR kinases, rendering the cells IL-3 independent
Outline: as §7

[2] = target: T8, Ba/F3 ERBB2-V777_G778insGC (Homo sapiens, UniProt P04626, INS778CG, cells depend on it); experiment: Cell viability assay (CellTiter Glo); type: cell-based, mouse; conditions: 72 hours; 3000 cells per well, 96-well plates; read-out: Cell viability IC50, nM, Ba/F3 ERBB2-V777_G778insGC
T8 construct: Ba/F3 cell lines were engineered to express human ERBB2 or EGFR kinases, rendering the cells IL-3 independent
Outline: as §7

[3] = target: T9, Ba/F3 ERBB2-P780_Y781insGSP (Homo sapiens, UniProt P04626, DUP778-780, cells depend on it); experiment: Cell viability assay (CellTiter Glo); type: cell-based, mouse; conditions: 72 hours; 3000 cells per well, 96-well plates; read-out: Cell viability IC50, nM, Ba/F3 ERBB2-P780_Y781insGSP
T9 construct: Ba/F3 cell lines were engineered to express human ERBB2 or EGFR kinases, rendering the cells IL-3 independent
Method: as §1, §2, §3, §4, §5
as §6, with “Percent viability was normalized to a vehicle control only using the following formula: % viability=100×(LumSample−LumLC) (LumHC−LumLC).” left out

[4] = target: T10, phosphorylated ERBB2 (pERBB2) (Homo sapiens, UniProt P04626); experiment: Detection of phosphorylated ERBB2 (pERBB2) by ELISA in BT-474 cells; type: cell-based; conditions: four hours incubation with compound, OD 450 nm
T10 construct: endogenous in cells; host or cells: BT-474
Outline: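 BT-474 cells were treated for 4 h at 37 °C with four-fold compound dilutions from 10 μM to 0.01 nM final, then lysed. Phospho-ERBB2 in the lysates was measured by ELISA with TMB read-out at 450 nm. Relative activity was normalised between cell-free wells and 0.1% DMSO-treated cells.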

T1 sequence (P04626 with tags, fused parts or gaps DUP772-775): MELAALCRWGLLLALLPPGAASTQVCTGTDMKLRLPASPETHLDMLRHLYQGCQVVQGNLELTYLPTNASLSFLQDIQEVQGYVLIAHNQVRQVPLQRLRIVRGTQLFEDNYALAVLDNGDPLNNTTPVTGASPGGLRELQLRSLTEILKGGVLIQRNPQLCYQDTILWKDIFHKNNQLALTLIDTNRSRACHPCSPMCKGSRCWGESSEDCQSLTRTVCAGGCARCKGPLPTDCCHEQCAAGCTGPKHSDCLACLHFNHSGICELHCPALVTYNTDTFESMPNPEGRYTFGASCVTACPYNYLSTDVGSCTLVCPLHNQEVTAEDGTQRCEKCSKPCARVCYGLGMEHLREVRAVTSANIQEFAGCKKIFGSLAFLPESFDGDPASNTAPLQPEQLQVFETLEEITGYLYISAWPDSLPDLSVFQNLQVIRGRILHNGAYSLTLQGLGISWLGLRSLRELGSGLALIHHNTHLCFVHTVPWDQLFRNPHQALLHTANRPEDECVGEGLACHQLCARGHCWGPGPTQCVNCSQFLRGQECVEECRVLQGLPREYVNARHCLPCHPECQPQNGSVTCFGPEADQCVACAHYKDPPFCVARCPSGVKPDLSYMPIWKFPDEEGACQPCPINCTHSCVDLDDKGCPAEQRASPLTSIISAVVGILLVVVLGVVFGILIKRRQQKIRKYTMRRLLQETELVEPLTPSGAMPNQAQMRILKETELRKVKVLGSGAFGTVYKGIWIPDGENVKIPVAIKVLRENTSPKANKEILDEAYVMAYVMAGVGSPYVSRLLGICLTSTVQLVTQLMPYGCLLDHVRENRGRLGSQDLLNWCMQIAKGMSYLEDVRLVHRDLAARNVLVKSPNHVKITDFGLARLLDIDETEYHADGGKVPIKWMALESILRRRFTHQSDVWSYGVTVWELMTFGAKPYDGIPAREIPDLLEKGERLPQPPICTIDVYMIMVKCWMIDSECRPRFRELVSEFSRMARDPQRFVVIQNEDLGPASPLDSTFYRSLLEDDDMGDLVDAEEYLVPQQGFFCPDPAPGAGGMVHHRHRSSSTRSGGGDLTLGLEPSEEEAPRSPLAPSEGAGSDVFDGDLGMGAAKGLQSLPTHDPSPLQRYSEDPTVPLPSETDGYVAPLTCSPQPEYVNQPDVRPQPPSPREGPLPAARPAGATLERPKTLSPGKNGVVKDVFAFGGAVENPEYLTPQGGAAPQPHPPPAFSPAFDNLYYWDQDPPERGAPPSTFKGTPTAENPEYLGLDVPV
T3 sequence (P04626 with tags, fused parts or gaps DELINS776-776VC): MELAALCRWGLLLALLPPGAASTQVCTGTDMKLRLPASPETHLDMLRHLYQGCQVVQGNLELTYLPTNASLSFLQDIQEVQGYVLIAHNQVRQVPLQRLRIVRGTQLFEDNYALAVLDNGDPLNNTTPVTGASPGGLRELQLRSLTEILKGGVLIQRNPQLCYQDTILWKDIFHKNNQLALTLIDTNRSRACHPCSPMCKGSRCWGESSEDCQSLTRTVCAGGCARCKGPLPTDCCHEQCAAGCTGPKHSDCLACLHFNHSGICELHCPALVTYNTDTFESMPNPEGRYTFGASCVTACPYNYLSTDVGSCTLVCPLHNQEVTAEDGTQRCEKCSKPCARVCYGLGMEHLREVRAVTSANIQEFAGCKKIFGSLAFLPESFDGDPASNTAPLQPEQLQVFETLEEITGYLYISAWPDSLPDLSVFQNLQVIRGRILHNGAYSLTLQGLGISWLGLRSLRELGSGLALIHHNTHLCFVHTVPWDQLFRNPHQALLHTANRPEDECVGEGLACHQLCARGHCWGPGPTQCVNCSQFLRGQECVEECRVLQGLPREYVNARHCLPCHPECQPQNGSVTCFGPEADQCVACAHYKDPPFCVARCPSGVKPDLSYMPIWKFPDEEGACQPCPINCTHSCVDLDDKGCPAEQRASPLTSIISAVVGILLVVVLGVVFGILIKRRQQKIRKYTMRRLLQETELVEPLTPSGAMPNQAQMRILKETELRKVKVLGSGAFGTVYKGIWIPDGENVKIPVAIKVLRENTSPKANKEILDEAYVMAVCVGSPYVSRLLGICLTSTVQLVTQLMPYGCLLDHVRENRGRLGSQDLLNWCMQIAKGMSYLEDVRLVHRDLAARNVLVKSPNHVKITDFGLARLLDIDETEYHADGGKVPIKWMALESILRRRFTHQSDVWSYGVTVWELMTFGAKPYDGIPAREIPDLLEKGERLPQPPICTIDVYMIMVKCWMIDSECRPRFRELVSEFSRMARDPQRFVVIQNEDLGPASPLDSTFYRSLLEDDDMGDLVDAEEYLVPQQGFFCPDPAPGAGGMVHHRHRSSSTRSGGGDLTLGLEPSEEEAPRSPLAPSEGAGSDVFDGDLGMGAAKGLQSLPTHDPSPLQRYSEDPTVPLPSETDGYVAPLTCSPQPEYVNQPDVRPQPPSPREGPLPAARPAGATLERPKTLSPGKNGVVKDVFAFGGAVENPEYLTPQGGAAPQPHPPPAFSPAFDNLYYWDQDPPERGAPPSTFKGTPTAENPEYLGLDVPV
T2 sequence (P04626 whole entry, change not shown): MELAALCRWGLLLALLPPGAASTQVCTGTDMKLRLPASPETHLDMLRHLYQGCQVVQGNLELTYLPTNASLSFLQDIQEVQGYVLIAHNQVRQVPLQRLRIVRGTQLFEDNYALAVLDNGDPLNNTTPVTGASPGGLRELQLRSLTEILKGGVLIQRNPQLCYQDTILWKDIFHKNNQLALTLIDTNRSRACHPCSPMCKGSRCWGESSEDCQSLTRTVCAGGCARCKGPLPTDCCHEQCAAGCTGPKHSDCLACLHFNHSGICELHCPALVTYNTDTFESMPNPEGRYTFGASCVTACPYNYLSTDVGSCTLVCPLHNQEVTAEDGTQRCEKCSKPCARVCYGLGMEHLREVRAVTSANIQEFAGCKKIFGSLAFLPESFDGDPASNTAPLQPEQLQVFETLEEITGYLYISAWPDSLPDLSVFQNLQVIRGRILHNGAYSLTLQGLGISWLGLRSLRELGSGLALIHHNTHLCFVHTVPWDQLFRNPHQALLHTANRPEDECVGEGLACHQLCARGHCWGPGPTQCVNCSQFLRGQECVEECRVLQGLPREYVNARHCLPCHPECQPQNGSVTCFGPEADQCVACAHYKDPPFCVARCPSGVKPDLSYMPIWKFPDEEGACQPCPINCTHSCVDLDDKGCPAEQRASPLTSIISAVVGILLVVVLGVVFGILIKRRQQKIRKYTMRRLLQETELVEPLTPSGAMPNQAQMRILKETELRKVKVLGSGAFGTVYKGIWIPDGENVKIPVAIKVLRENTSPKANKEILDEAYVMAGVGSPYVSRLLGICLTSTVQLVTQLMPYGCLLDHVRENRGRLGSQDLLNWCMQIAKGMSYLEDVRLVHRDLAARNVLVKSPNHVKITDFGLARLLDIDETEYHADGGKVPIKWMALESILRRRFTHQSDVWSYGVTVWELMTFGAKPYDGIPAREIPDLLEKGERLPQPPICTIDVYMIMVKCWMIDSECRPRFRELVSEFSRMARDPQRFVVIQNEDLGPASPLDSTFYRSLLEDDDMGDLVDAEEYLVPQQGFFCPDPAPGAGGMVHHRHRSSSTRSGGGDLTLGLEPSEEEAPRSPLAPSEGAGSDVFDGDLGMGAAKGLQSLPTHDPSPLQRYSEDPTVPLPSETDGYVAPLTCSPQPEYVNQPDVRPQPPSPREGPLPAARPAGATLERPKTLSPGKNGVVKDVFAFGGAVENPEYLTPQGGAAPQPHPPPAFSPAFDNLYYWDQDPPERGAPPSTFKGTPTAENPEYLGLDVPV
T9 sequence (P04626 with tags, fused parts or gaps DUP778-780): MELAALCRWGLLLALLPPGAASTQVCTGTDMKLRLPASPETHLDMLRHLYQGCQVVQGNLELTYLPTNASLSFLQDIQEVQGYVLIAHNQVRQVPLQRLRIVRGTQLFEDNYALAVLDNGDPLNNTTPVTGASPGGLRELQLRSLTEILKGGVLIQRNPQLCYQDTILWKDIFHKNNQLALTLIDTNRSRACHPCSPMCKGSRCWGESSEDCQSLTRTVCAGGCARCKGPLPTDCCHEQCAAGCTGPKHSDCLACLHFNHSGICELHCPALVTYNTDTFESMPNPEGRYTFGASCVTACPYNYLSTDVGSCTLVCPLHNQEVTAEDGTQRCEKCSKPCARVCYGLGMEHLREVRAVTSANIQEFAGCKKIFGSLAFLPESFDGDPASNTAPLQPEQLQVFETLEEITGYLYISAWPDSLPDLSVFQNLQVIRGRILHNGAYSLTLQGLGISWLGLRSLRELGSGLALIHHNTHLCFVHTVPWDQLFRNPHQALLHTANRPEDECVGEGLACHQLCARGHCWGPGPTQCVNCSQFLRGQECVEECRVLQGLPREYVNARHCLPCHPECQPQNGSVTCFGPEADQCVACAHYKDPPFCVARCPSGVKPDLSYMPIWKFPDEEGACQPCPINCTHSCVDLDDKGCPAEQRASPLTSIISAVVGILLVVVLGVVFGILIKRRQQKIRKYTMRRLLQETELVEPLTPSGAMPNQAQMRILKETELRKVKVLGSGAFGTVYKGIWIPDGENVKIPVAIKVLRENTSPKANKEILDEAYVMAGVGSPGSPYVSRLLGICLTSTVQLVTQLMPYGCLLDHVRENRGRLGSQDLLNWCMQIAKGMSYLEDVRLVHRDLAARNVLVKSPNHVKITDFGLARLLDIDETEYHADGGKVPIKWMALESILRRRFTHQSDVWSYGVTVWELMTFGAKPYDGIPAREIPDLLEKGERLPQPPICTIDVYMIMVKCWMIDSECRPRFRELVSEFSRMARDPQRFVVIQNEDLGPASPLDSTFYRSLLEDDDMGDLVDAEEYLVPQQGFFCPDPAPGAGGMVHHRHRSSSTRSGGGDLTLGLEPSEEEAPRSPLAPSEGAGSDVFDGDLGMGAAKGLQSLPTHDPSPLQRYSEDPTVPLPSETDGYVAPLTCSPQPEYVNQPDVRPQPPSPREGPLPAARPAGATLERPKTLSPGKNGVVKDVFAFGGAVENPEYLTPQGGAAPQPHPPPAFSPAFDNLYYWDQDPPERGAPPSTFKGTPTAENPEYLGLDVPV

IC50 (A431 cells): 454 nM | IC50 (BT-474 cells): 12.3 nM | IC50 (MDA-MB-175VII cells): 142 nM | IC50 [4]: 43.9 nM
SMILES: CC#CC(=O)Nc1ccc2ncnc(Nc3ccc(Oc4ccc(C)nc4)cc3)c2c1 [Compound 9, N-[4-([4-[(6-methylpyridin-3-yl)oxy]phenyl]amino)quinazolin-6-yl]but-2-ynamide]
GI50 [1]: 20 nM | GI50 (Ba/F3 ERBB2 wt): 5.7 nM | GI50 (Ba/F3 ERBB2-G776VC): 21 nM | GI50 (Ba/F3 ERBB2-L755S): 35 nM | GI50 (Ba/F3 ERBB2-L869R): 15 nM | GI50 (Ba/F3 ERBB2-T798M): 239 nM | GI50 (Ba/F3 ERBB2-V777L): 4.1 nM | GI50 [2]: 2.4 nM | GI50 [3]: 5.5 nM
